Data published in US8492401B2, “Thiazolopyridine sirtuin modulating compounds” (Sirtris Pharmaceuticals, priority 2008, dated 2013).

Target: T1, SIRT1 (Homo sapiens, UniProt Q96EB6)
T1 sequence (Q96EB6 1-747): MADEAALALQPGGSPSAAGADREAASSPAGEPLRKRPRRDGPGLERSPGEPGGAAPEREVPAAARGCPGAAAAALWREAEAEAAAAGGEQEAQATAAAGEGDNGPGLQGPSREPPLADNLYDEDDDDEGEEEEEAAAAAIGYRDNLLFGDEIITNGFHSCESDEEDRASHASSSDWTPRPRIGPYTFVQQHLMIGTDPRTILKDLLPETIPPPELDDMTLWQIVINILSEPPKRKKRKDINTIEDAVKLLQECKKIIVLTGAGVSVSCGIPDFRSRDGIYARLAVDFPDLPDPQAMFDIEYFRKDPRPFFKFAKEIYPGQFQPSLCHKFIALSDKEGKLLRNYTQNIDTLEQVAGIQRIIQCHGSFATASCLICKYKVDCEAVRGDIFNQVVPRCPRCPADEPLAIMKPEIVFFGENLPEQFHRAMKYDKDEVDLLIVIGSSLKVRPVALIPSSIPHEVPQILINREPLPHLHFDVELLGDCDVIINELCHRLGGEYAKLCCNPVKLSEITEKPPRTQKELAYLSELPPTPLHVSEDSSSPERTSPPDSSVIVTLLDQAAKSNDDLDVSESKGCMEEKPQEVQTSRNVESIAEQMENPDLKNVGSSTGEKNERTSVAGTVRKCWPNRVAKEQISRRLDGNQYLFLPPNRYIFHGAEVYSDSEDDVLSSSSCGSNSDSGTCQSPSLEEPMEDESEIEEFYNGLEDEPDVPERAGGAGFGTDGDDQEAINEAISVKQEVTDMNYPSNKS
Experiment: Mass spectrometry based assay to identify modulators (activators) of SIRT1 activity
Type: biochemical
Conditions: 0.5 μM peptide substrate, 120 μM βNAD+, 10 nM SIRT1, 25 minutes at 25° C.; for EC1.5: SIRT1 activation
From the text: A mass spectrometry based assay was used to identify modulators of SIRT1 activity. The mass spectrometry based assay utilizes a peptide having 20 amino acid residues as follows: Ac-EE-K(biotin)-GQSTSSHSK(Ac)NleSTEG-K(5TMR)-EE-NH2 (SEQ ID NO: 1) wherein K(Ac) is an acetylated lysine residue and Nle is a norleucine. The peptide is labeled with the fluorophore 5TMR (excitation 540 nm/emission 580 nm) at the C-terminus. The sequence of the peptide substrate is based on p53 with several modifications. In addition, the methionine residue naturally present in the sequence was replaced with the norleucine because the methionine may be susceptible to oxidation during synthesis and purification.
The mass spectrometry assay is conducted as follows: 0.5 μM peptide substrate and 120 μM βNAD^+ is incubated with 10 nM SIRT1 for 25 minutes at 25° C. in a reaction buffer (50 mM Tris-acetate pH 8, 137 mM NaCl, 2.7 mM KCl, 1 mM MgCl2, 5 mM DTT, 0.05% BSA). Test compounds may be added to the reaction as described above. […] After the 25 minute incubation with SIRT1, 10 μL of 10% formic acid is added to stop the reaction. Reactions are sealed and frozen for later mass spec analysis. Determination of the mass of the substrate peptide allows for precise determination of the degree of acetylation (i.e. starting material) as compared to deacetylated peptide (product).
A control for inhibition of sirtuin activity is conducted by adding 1 μL of 500 mM nicotinamide as a negative control at the start of the reaction (e.g., permits determination of maximum sirtuin inhibition). A control for activation of sirtuin activity is conducted using 10 nM of sirtuin protein, with 1 μL of DMSO in place of compound, to determine the amount of deacetylation of the substrate at a given timepoint within the linear range of the assay. This timepoint is the same as that used for test compounds and, within the linear range, the endpoint represents a change in velocity.
For the above assay, SIRT1 protein was expressed and purified as follows. […] The protein was expressed by induction with 1 mM IPTG as an N-terminal His-tag fusion protein at 18° C. overnight and harvested at 30,000×g. Cells were lysed with lysozyme in lysis buffer (50 mM Tris-HCl, 2 mM Tris[2-carboxyethyl]phosphine (TCEP), 10 μM ZnCl2, 200 mM NaCl) and further treated with sonication for 10 min for complete lysis. The protein was purified over a Ni-NTA column (Amersham) and fractions containing pure protein were pooled, concentrated and run over a sizing column (Sephadex S200 26/60 global). The peak containing soluble protein was collected and run on an Ion-exchange column (MonoQ). Gradient elution (200 mM-500 mM NaCl) yielded pure protein. This protein was concentrated and dialyzed against dialysis buffer (20 mM Tris-HCl, 2 mM TCEP) overnight. The protein was aliquoted and frozen at −80° C. until further use.
Sirtuin modulating compounds that activated SIRT1 were identified using the assay described above and are shown below in Table 1. The EC1.5 values for the activating compounds are represented by A (EC1.5≦1 uM), B (EC1.5>1 and ≦10 uM), or C (EC1.5>10 uM). The percent maximum fold activation is represented by A (Fold activation≧300%), B (Fold Activation≧150% and <300%), or C (Fold Activation<150%).

Row | SMILES | FOLD ACT. (percent maximum fold activation) | EC1.5
1 | COCCN1CCN(Cc2cnc3sc(-c4ccccc4NC(=O)c4csc(-c5ccccc5)n4)nc3c2)CC1 [Compound 1, N-(2-(6-((4-(2-methoxyethyl)piperazin-1-yl)methyl)thiazolo[5,4-b]pyridin-2-yl)phenyl)-2-phenylthiazole-4-carboxamide] | A (Fold activation≧300%) | A (EC1.5≦1 uM)
2 | O=C(Nc1ccccc1-c1nc2cc(CN3CCOCC3)cnc2s1)c1csc(-c2ccccc2)n1 [Compound 2, N-(2-(6-(morpholinomethyl)thiazolo[5,4-b]pyridin-2-yl)phenyl)-2-phenylthiazole-4-carboxamide] | A (Fold activation≧300%) | A (EC1.5≦1 uM)
3 | O=C(Nc1ccccc1-c1nc2cc(CN3CCCC3)cnc2s1)c1csc(-c2ccccc2)n1 [Compound 3, 2-phenyl-N-(2-(6-(pyrrolidin-1-ylmethyl)thiazolo[5,4-b]pyridin-2-yl)phenyl)thiazole-4-carboxamide] | B (Fold Activation≧150% and <300%) | A (EC1.5≦1 uM)
4 | COCCCc1sc(-c2ccccc2)nc1C(=O)Nc1ccccc1-c1nc2cc(CN3CCCC3)cnc2s1 [Compound 4, 5-(3-methoxypropyl)-2-phenyl-N-(2-(6-(pyrrolidin-1-ylmethyl)thiazolo[5,4-b]pyridin-2-yl)phenyl)thiazole-4-carboxamide] | B (Fold Activation≧150% and <300%) | A (EC1.5≦1 uM)
5 | COCC#Cc1sc(-c2ccccc2)nc1C(=O)Nc1ccccc1-c1nc2cc(CN3CCCC3)cnc2s1 [Compound 5, 5-(3-methoxyprop-1-ynyl)-2-phenyl-N-(2-(6-(pyrrolidin-1-ylmethyl)thiazolo[5,4-b]pyridin-2-yl)phenyl)thiazole-4-carboxamide] | B (Fold Activation≧150% and <300%) | A (EC1.5≦1 uM)
6 | COCCCc1sc(-c2ccccc2)nc1C(=O)Nc1ccccc1-c1nc2cccnc2s1 [Compound 6, 5-(3-methoxypropyl)-2-phenyl-N-(2-(thiazolo[5,4-b]pyridin-2-yl)phenyl)thiazole-4-carboxamide] | B (Fold Activation≧150% and <300%) | B (EC1.5>1 and ≦10 uM)
7 | COCCN1CCN(CCCc2sc(-c3ccccc3)nc2C(=O)Nc2ccccc2-c2nc3cccnc3s2)CC1 [Compound 7, 5-(3-(4-(2-methoxyethyl)piperazin-1-yl)propyl)-2-phenyl-N-(2-(thiazolo[5,4-b]pyridin-2-yl)phenyl)thiazole-4-carboxamide] | B (Fold Activation≧150% and <300%) | A (EC1.5≦1 uM)
8 | O=C(Nc1ccccc1-c1nc2cccnc2s1)c1nc(-c2ccccc2)sc1CCCN1CCCC1 [Compound 8, 2-phenyl-5-(3-(pyrrolidin-1-yl)propyl)-N-(2-(thiazolo[5,4-b]pyridin-2-yl)phenyl)thiazole-4-carboxamide] | A (Fold activation≧300%) | A (EC1.5≦1 uM)
9 | CC(C)N1CCN(Cc2sc(-c3ccccc3)nc2C(=O)Nc2ccccc2-c2nc3cccnc3s2)CC1 [Compound 9, 5-((4-isopropylpiperazin-1-yl)methyl)-2-phenyl-N-(2-(thiazolo[5,4-b]pyridin-2-yl)phenyl)thiazole-4-carboxamide] | A (Fold activation≧300%) | A (EC1.5≦1 uM)
10 | O=C(Nc1ccccc1-c1nc2cccnc2s1)c1nc(-c2ccccc2)sc1CN1CCOCC1 [Compound 10, 5-(morpholinomethyl)-2-phenyl-N-(2-(thiazolo[5,4-b]pyridin-2-yl)phenyl)thiazole-4-carboxamide] | B (Fold Activation≧150% and <300%) | A (EC1.5≦1 uM)
11 | O=C(Nc1ccccc1-c1nc2cccnc2s1)c1nc(-c2ccccc2)sc1CN1CCCC1 [Compound 11, 2-phenyl-5-(pyrrolidin-1-ylmethyl)-N-(2-(thiazolo[5,4-b]pyridin-2-yl)phenyl)thiazole-4-carboxamide] | C (Fold Activation<150%) | B (EC1.5>1 and ≦10 uM)
12 | COCCN1CCN(Cc2sc(-c3ccccc3)nc2C(=O)Nc2ccccc2-c2nc3cccnc3s2)CC1 [Compound 12, 5-((4-(2-methoxyethyl)piperazin-1-yl)methyl)-2-phenyl-N-(2-(thiazolo[5,4-b]pyridin-2-yl)phenyl)thiazole-4-carboxamide] | A (Fold activation≧300%) | A (EC1.5≦1 uM)
13 | O=C(Nc1ccccc1-c1nc2cccnc2s1)c1nc(-c2ccccc2)sc1CCCN1CCOCC1 [Compound 13, 5-(3-morpholinopropyl)-2-phenyl-N-(2-(thiazolo[5,4-b]pyridin-2-yl)phenyl)thiazole-4-carboxamide] | B (Fold Activation≧150% and <300%) | A (EC1.5≦1 uM)
14 | COCCN1CCN(Cc2cnc3sc(-c4ccccc4NC(=O)c4nc(-c5ccccc5)oc4C(F)(F)F)nc3c2)CC1 [Compound 14, N-(2-(6-((4-(2-methoxyethyl)piperazin-1-yl)methyl)thiazolo[5,4-b]pyridin-2-yl)phenyl)-2-phenyl-5-(trifluoromethyl)oxazole-4-carboxamide] | B (Fold Activation≧150% and <300%) | A (EC1.5≦1 uM)
15 | COCCN1CCN(Cc2cnc3sc(-c4ccccc4NC(=O)c4nc(-c5ccccc5)oc4C)nc3c2)CC1 [Compound 15, N-(2-(6-((4-(2-methoxyethyl)piperazin-1-yl)methyl)thiazolo[5,4-b]pyridin-2-yl)phenyl)-5-methyl-2-phenyloxazole-4-carboxamide] | B (Fold Activation≧150% and <300%) | A (EC1.5≦1 uM)
16 | Cc1oc(-c2ccccc2)nc1C(=O)Nc1ccccc1-c1nc2cc(CN3CCOCC3)cnc2s1 [Compound 16, 5-methyl-N-(2-(6-(morpholinomethyl)thiazolo[5,4-b]pyridin-2-yl)phenyl)-2-phenyloxazole-4-carboxamide] | B (Fold Activation≧150% and <300%) | A (EC1.5≦1 uM)
17 | Cc1oc(-c2ccccc2)nc1C(=O)Nc1ccccc1-c1nc2cc(CN3CCCC3)cnc2s1 [Compound 17, 5-methyl-2-phenyl-N-(2-(6-(pyrrolidin-1-ylmethyl)thiazolo[5,4-b]pyridin-2-yl)phenyl)oxazole-4-carboxamide] | A (Fold activation≧300%) | B (EC1.5>1 and ≦10 uM)
18 | O=C(Nc1ccccc1-c1nc2cccnc2s1)c1nc(-c2ccccc2)oc1CN1CCOCC1 [Compound 18, 5-(morpholinomethyl)-2-phenyl-N-(2-(thiazolo[5,4-b]pyridin-2-yl)phenyl)oxazole-4-carboxamide] | C (Fold Activation<150%) | C (EC1.5>10 uM)
